Test [1] deals with T1, human AR (Homo sapiens, UniProt P10275).
T1 sequence (P10275 1-920): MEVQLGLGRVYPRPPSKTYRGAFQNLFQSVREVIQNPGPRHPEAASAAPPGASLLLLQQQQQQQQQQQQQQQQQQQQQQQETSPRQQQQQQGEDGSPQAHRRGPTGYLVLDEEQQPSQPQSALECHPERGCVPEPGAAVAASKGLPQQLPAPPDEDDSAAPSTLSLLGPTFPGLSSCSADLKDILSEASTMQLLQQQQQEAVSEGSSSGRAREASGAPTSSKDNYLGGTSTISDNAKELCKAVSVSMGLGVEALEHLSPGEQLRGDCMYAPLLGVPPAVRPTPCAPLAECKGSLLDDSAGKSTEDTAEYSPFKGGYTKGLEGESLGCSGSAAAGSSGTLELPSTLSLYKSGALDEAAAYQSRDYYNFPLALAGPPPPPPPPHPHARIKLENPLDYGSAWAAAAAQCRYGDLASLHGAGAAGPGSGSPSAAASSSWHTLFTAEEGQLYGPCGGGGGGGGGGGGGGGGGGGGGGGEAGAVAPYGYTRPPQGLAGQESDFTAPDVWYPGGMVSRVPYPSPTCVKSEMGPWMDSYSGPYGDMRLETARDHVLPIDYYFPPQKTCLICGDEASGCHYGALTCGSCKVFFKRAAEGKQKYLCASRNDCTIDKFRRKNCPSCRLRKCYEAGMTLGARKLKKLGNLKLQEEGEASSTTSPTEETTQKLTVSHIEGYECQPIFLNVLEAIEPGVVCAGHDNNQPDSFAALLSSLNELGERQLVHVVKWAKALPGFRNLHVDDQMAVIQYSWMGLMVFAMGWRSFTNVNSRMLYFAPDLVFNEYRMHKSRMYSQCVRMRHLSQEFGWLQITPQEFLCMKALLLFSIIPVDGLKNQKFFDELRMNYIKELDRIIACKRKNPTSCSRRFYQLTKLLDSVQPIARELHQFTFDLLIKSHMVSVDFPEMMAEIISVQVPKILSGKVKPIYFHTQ
Put plainly: AR whole cell competitive binding assay (COS-1 cells, 3H-DHT). The settings on record: 1 nM 3H-DHT, Cheng-Prusoff.
Procedure: AR Binding: For the whole cell binding assay, COS-1 cells in 96-well microtiter plates containing DMEM-10% FBS were transfected as described above with the following plasmid DNA: pRShAR (2 ng/well), pRS-β-Gal (50 ng/well) and pGEM (48 ngcwell). Six hours after transfection, media was removed, the cells were washed with PBS and fresh media was added. The next day, the media was changed to DMEM-serum free to remove any endogenous ligand that might be complexed with the receptor in the cells.
Three replicates were used for each sample. […] The remaining media was removed, the cells were washed three times with PBS to remove unbound ligand, and cells were lysed with a Triton X-100-based buffer.
For the saturation analyses, the difference between the total binding and the nonspecific binding, normalized by the β-Gal rate, was defined as specific binding. […] The Ki values were determined by application of the Cheng-Prusoff equation to the IC50 values, where:
After correcting for non-specific binding, IC50 values were determined. […] The IC50 value was determined graphically from a log-logit plot of the data. The Ki values were determined by application of the Cheng-Prusoff equivuation to the IC50 values, the labeled ligand concentration and the Kd of the labeled ligand.

Test [2] concerns the target T1, human AR. Put plainly: Co-transfection assay, AR antagonist activity (CV-1 cells, in presence of DHT). In kind it is cell-based. The settings on record: for AR Antagonist CV-1 Cells Efficacy (%): percent maximal inhibition, DHT at its EC50; for IC50: read-out: AR Antagonist CV-1 Cells Potency.
Test [3] deals with T1, human AR. The test is described as follows: Co-transfection assay, AR agonist activity (CV-1 cells, MTV-LUC reporter). In kind it is cell-based. The note with it: CV-1 cells; for EC50: agonist potency EC50; for AR Agonist CV-1 Cells Efficacy (%): percent maximal response relative to reference agonist DHT.

Turning to `C=CCN(CC=C)c1ccc2[nH]c(=O)cc(C(F)(F)F)c2c1` [Compound 280, 6-Diallylamino-4-trifluoromethyl-2(1H)-quinolinone], in test [1], the inhibition constant Ki (usually the equilibrium dissociation constant of an inhibitor or competing ligand from its target) was 2.4 nM. In test [2], the “AR Antagonist CV-1 Cells Efficacy (%)” value is “na (na = not active (i.e. efficacy of <20 and potency of >10,000))”; the IC50 was > 10000 nM. In test [3], the response was half-maximal at 2.2 nM (EC50) and the “AR Agonist CV-1 Cells Efficacy (%)” value worked out at 78%.
For the compound `C=CCN(CC1CC1)c1ccc2[nH]c(=O)cc(C(F)(F)F)c2c1` [Compound 285, 6-(N-Allyl-N-cyclopropylmethyl)amino-4-trifluoromethyl-2(1H)-quinolinone], the Ki in test [1] is 6.2 nM. In test [2], the “AR Antagonist CV-1 Cells Efficacy (%)” value was “na (na = not active (i.e. efficacy of <20 and potency of >10,000))”; the IC50 is > 10000 nM. For the same compound, in test [3], the EC50 (as a rule, the concentration that produces a half-maximal response) is 1 nM and the “AR Agonist CV-1 Cells Efficacy (%)” value is 111%.
Compound `CS(=O)(=O)N(CC(F)(F)F)c1ccc2[nH]c(=O)cc(C(F)(F)F)c2c1` [Compound 295, 6-(N-2,2,2-Trifluoroethyl-N-methylsufonyl)amino-4-trifluoromethyl-2(1H)-quinolinone] came in with an inhibition constant Ki in test [1] of 86 nM. In test [2], the “AR Antagonist CV-1 Cells Efficacy (%)” value is 49% and the IC50 was determined as 3.6 nM. Moreover, in test [3], a half-maximal effect (EC50) was put at 50 nM and the “AR Agonist CV-1 Cells Efficacy (%)” value is 30%.
Turning to `Cn1c(=O)cc(C(F)(F)F)c2cc(N(CC(F)(F)F)CC(F)(F)F)ccc21` [Compound 297, 1-Methyl-6-(bis-2,2,2-trifluoroethyl)amino-4-trifluoromethyl-2(1H)-quinolinone], in test [1], the inhibition constant (Ki) was 58 nM. For the same compound, in test [2], the “AR Antagonist CV-1 Cells Efficacy (%)” value worked out at 43% and the IC50 stood at 3.2 nM. For the same compound, in test [3], the EC50 stood at 22 nM and the “AR Agonist CV-1 Cells Efficacy (%)” value stood at 43%.
In the case of `CC(C)(C)Nc1ccc2[nH]c(=O)cc(C(F)(F)F)c2c1` [Compound 307, 6-tert-Butylamino-4-trifluoromethyl-2(1H)-quinolinone], the Ki in test [1] was 61 nM. For the same compound, in test [2], the “AR Antagonist CV-1 Cells Efficacy (%)” value came to 43% and the IC50 is 3.2 nM. Besides, in test [3], the EC50 is > 10000 nM.
In test [1], `O=c1cc(C(F)(F)F)c2cc(N3CCCCC3)ccc2[nH]1` [Compound 311, 6-(1-Piperidinyl)-4-trifluoromethyl-2(1H)-quinolinone] yielded a Ki of 12 nM. Besides, in test [2], the “AR Antagonist CV-1 Cells Efficacy (%)” value was 38% and the IC50 worked out at 13 nM. In test [3], the response was half-maximal at 143 nM (EC50) and the “AR Agonist CV-1 Cells Efficacy (%)” value is 42%.
Compound `C[C@@H]1CC[C@H](C)N1c1ccc2[nH]c(=O)cc(C(F)(F)F)c2c1` [Compound 328, 6-(2,5-cis-Dimethyl-1-pyrrolidino)-4-trifluoromethyl-2(1H)-quinolinone] came in with a Ki in test [1] of 48 nM. Besides, in test [2], the “AR Antagonist CV-1 Cells Efficacy (%)” value is “na (na = not active (i.e. efficacy of <20 and potency of >10,000))”; the IC50 was > 10000 nM. Moreover, in test [3], the EC50 stood at 1.7 nM and the “AR Agonist CV-1 Cells Efficacy (%)” value amounted to 93%.
`O=c1cc(C(F)(F)F)c2cc(N3CCCCCC3)ccc2[nH]1` [Compound 330, 6-(1-Azepano)-4-trifluoromethyl-2(1H)-quinolinone] registered a Ki in test [1] of 55 nM. For the same compound, in test [2], the “AR Antagonist CV-1 Cells Efficacy (%)” value was “na (na = not active (i.e. efficacy of <20 and potency of >10,000))”; the IC50 is > 10000 nM. In test [3], the EC50 was 3.9 nM and the “AR Agonist CV-1 Cells Efficacy (%)” value is 81%.
`C[C@@H]1C=C[C@H](C)N1c1ccc2[nH]c(=O)cc(C(F)(F)F)c2c1` [Compound 332, 6-(2,5-cis-Dimethyl-1-pyrrolino)-4-trifluoromethyl-2(1H)-quinolinone] registered a Ki in test [1] of 19 nM. For the same compound, in test [2], the “AR Antagonist CV-1 Cells Efficacy (%)” value was “na (na = not active (i.e. efficacy of <20 and potency of >10,000))”; the IC50 is > 10000 nM. Besides, in test [3], the EC50 was 14 nM and the “AR Agonist CV-1 Cells Efficacy (%)” value is on record as 121%.
For the compound `O=c1cc(C(F)(F)F)c2cc(N3CCc4ccccc43)ccc2[nH]1` [Compound 347, 6-(1-Indolino)-4-trifluoromethyl-2(1H)-quinolinone], the Ki in test [1] turned out to be 970 nM. In test [2], the “AR Antagonist CV-1 Cells Efficacy (%)” value is given as 89% and the IC50 was determined as 59 nM. Moreover, the concentration giving a half-maximal response (EC50) in test [3] was > 10000 nM.
Turning to `O=c1cc(C(F)(F)F)c2cc(N3CCCc4ccccc43)ccc2[nH]1` [Compound 348, 6-(1-Tetrahydroquinolino)-4-trifluoromethyl-2(1H)-quinolinone], affinity in test [1] was put at a Ki of 62 nM. Also, in test [2], the “AR Antagonist CV-1 Cells Efficacy (%)” value was found to be 81% and the IC50 was 24 nM. The EC50 in test [3] is > 10000 nM.
Turning to `CCC[C@@H]1CC[C@H](CCC)N1c1ccc2[nH]c(=O)cc(C(F)(F)F)c2c1` [Compound 366, 6-(2,5-cis-Dipropyl-1-pyrrolidino)-4-trifluoromethyl-2(1H)-quinolinone], the Ki in test [1] was > 1000 nM. Also, in test [2], the “AR Antagonist CV-1 Cells Efficacy (%)” value was determined as 85% and the IC50 was 31 nM. Moreover, the EC50 in test [3] was > 10000 nM.
On to `CCCN(CC(F)(F)F)c1ccc2[nH]c(=O)cc(C)c2c1` [Compound 374, 6-(N-Propyl-N-2,2,2-trifluoroethyl)amino-4-methyl-2(1H)-quinolinone], for which the Ki in test [1] amounted to 6.2 nM. In test [2], the “AR Antagonist CV-1 Cells Efficacy (%)” value is “na (na = not active (i.e. efficacy of <20 and potency of >10,000))”; the IC50 was > 10000 nM. Besides, in test [3], it took 2.2 nM to reach a half-maximal effect (EC50) and the “AR Agonist CV-1 Cells Efficacy (%)” value is recorded as 77%.
In test [1], `COC[C@H]1CCCN1c1ccc2[nH]c(=O)cc(C(F)(F)F)c2c1` [Compound 423, (R)-6-(2-Methoxymethyl-1-pyrrolidino)-4-trifluoromethyl-2(1H)-quinolinone] came in with a Ki of 22 nM. Further, in test [2], the “AR Antagonist CV-1 Cells Efficacy (%)” value is “na (na = not active (i.e. efficacy of <20 and potency of >10,000))”; the IC50 is > 10000 nM. In test [3], a half-maximal response (EC50) required 86 nM and the “AR Agonist CV-1 Cells Efficacy (%)” value was 57%.
In test [1], `O=c1cc(C(F)(F)F)c2cc(N3CCCC[C@H]3CCl)ccc2[nH]1` [Compound 432, (+)S-6-(2-Chloromethyl-1-piperidino)-4-trifluoromethyl-2(1H)-quinolinone] yielded a Ki of 32 nM. In test [2], the “AR Antagonist CV-1 Cells Efficacy (%)” value was “na (na = not active (i.e. efficacy of <20 and potency of >10,000))”; the IC50 was > 10000 nM. Moreover, in test [3], a half-maximal response (EC50) required 8 nM and the “AR Agonist CV-1 Cells Efficacy (%)” value is recorded as 96%.
On to `O=c1cc(C(F)(F)F)c2cc(N3CCCC[C@@H]3CCl)ccc2[nH]1` [Compound 433, (−)R-6-(2-Chloromethyl-1-piperidino)-4-trifluoromethyl-2(1H)-quinolinone], for which the Ki in test [1] came out at 1.5 nM. For the same compound, in test [2], the “AR Antagonist CV-1 Cells Efficacy (%)” value was “na (na = not active (i.e. efficacy of <20 and potency of >10,000))”; the IC50 was > 10000 nM. Besides, in test [3], a half-maximal effect (EC50) was put at 6.4 nM and the “AR Agonist CV-1 Cells Efficacy (%)” value was 120%.
In turn, `O=c1cc(C(F)(F)F)c2cc(N3CCCC[C@@H]3[C@@H](O)C(F)(F)F)ccc2[nH]1` [Compound 457, (+)-6-(2R-(1R-Hydroxy-2,2,2-trifluoroethyl)-1-piperidino)-4-trifluoromethyl-2(1H)-quinolinone] yielded a Ki in test [1] of 3.2 nM. Besides, in test [2], the “AR Antagonist CV-1 Cells Efficacy (%)” value was “na (na = not active (i.e. efficacy of <20 and potency of >10,000))”; the IC50 is > 10000 nM. Also, in test [3], the EC50 amounted to 3 nM and the “AR Agonist CV-1 Cells Efficacy (%)” value came out at 85%.
Compound `O=c1cc(C(F)(F)F)c2cc(N(CC(F)(F)F)CC(F)(F)F)ccc2o1` [Compound 474, 6-(bis-N,N-2,2,2-Trifluoroethyl)amino-4-trifluoromethylcoumarin] yielded a Ki in test [1] of 1.8 nM. In addition, in test [2], the “AR Antagonist CV-1 Cells Efficacy (%)” value was “na (na = not active (i.e. efficacy of <20 and potency of >10,000))”; the IC50 was > 10000 nM. In test [3], the EC50 stood at 0.6 nM and the “AR Agonist CV-1 Cells Efficacy (%)” value is on record as 73%.
`CC1(C)OC(=O)Nc2ccc(N(CC(F)(F)F)CC(F)(F)F)cc21` [Compound 490, 1,4-Dihydro-4,4-dimethyl-6-(bis-N,N-2,2,2-trifluoroethyl)amino-1,3-benzo [d-]oxazin-2-one]: in test [1], the Ki is 12 nM. Also, in test [2], the “AR Antagonist CV-1 Cells Efficacy (%)” value was “na (na = not active (i.e. efficacy of <20 and potency of >10,000))”; the IC50 was > 10000 nM. Also, in test [3], the response was half-maximal at 12 nM (EC50) and the “AR Agonist CV-1 Cells Efficacy (%)” value is recorded as 113%.

(Values after US7696246B2 (Ligand Pharmaceuticals Incorporated, priority 1999, dated 2010).)
